Experiments:
Adenosine receptor A2a [1] = biological target: Adenosine receptor A2a (Homo sapiens, UniProt P29274); assay: Binding affinity for human adenosine A2A receptor in CHO cells using [3H]CGS-21680; format: cell-based
Adenosine receptor A2a [2] = biological target: Adenosine receptor A2a (Rattus norvegicus, UniProt P30543); assay: Binding affinity for rat adenosine A2A receptor in rat brain homogenates using [3H]CGS-21680
Adenosine receptor A1 = biological target: T1, Adenosine receptor A1 (Rattus norvegicus, UniProt P25099); assay: Binding affinity for rat Adenosine A1 receptor in rat brain homogenates using [3H]N6-(R)-phenylisopropyladenosine
T1 sequence (P25099 whole entry): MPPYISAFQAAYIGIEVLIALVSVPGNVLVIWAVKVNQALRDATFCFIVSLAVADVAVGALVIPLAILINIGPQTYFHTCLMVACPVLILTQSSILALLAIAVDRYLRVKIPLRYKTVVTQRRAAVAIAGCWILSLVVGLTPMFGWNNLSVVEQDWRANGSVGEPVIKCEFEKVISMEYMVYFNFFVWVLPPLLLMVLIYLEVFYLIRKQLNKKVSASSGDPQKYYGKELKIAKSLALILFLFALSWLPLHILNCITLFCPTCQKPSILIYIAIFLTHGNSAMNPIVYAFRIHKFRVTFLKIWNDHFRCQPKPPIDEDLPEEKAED

Adenosine receptor A3 = biological target: T2, Adenosine receptor A3 (Homo sapiens, UniProt P0DMS8); assay: Inhibitory concentration against human Adenosine A3 receptor mediated inhibition of cyclic AMP in transfected CHO cells; format: functional, cell-based
T2 sequence (P0DMS8 whole entry): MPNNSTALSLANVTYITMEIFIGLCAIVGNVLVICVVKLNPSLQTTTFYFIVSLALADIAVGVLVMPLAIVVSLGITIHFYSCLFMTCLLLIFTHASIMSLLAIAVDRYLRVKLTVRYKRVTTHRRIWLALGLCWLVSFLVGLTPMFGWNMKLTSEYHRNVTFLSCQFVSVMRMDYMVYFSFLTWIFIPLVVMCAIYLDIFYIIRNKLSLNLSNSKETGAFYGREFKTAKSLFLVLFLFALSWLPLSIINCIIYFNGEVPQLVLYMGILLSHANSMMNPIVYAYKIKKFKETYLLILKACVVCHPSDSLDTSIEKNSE

[3] = biological target: Adenosine receptor A2a (Rattus norvegicus) (UniProt P30543); assay: Percent displacement of [3H]-CGS-21,680 from rat adenosine A2A receptor in rat brain homogenates at 1 uM
Chain of Adenosine receptor A2a (Rattus norvegicus) (P30543 whole entry): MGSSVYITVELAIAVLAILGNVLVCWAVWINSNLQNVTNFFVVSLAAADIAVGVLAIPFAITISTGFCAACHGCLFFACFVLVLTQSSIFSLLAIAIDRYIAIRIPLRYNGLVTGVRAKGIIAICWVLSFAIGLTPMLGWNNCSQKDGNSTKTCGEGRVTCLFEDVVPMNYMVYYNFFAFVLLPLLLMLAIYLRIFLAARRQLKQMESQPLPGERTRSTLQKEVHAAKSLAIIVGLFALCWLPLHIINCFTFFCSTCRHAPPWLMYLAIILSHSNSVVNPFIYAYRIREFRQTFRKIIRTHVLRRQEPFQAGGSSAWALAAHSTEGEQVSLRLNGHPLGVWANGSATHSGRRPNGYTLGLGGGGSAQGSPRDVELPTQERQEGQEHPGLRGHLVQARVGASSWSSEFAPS

Chain of Adenosine receptor A2a (Homo sapiens, UniProt P29274) (P29274 whole entry): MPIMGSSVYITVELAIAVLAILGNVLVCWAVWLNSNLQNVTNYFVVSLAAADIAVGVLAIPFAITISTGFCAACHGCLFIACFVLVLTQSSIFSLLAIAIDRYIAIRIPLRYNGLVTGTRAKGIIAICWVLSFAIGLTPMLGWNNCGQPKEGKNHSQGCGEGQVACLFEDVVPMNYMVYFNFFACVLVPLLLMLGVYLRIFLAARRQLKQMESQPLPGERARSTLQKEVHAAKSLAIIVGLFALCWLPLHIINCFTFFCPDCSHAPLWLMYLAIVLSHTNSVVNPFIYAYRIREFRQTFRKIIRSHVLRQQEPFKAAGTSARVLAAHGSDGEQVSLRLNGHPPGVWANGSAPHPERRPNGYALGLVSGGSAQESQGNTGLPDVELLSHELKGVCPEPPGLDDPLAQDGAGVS
Chain of Adenosine receptor A2a (Rattus norvegicus, UniProt P30543) (P30543 whole entry): as the sequence (P30543 whole entry) above

Row | SMILES | Ki (Adenosine receptor A2a [1]) [nM] | Ki (Adenosine receptor A2a [2]) [nM] | Ki (Adenosine receptor A1) [nM] | IC50 (Adenosine receptor A3) [nM] | Displacement [3] [%]
1 | CNC(=O)[C@H]1S[C@@H](n2cnc3c(NCc4cccc(I)c4)nc(Cl)nc32)[C@H](O)[C@@H]1O | 223 | 348 | 140 |  | 
2 | CNC(=O)[C@H]1S[C@@H](n2cnc3c(N)nc(Cl)nc32)[C@H](O)[C@@H]1O |  |  |  | 1 | < 10

Reference: ChEMBL document CHEMBL1145992, “N6-substituted D-4'-thioadenosine-5'-methyluronamides: potent and selective agonists at the human A3 adenosine receptor” (J Med Chem, 2003)
